Assay results reported in patent US9115121B2, “1,3,5-triazine-2-amine derivatives, preparation thereof and diagnostic and therapeutic use thereof” (SANOFI, priority 2011, dated 2015).

What follows are compounds tested against human CB2 receptors (Homo sapiens (Human), UniProt P34972) (assay: Affinity binding test on human CB2 receptors (tritiated ligand, membranes of recombinant cell lines)). Conditions: concentration causing 50% inhibition of specific binding of the tritiated ligand, read-out: IC50 (nM) hCB2.
Method: Affinity binding tests were performed according to the experimental conditions described by M. Rinaldi-Carmona in J. Pharmacol. Exp. Therap. 1998, 287, 644-650, with membranes derived either from rodent tissues or from recombinant cell lines in which the human CB2 receptors were expressed (Munro et al., Nature 1993, 365, 61-65). The affinity of the compounds is expressed in the form of the IC50 (concentration causing 50% inhibition of specific binding of the tritiated ligand used in vitro).

Sequence of human CB2 receptors (P34972 whole entry): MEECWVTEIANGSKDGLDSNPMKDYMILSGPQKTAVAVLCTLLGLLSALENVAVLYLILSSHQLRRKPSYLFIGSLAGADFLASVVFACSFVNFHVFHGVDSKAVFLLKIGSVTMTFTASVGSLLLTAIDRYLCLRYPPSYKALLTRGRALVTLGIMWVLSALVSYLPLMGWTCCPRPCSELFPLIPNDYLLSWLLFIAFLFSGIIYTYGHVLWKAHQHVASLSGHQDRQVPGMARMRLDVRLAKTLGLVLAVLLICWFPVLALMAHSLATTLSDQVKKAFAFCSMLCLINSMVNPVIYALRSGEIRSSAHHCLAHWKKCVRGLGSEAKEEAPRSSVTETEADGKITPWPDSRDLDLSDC

First: COc1nc(NCCc2ccc(F)cc2)nc(-c2cccc(OC(C)C)c2)n1 [Compound 2]
Second: COC(=O)CCc1cccc(-c2nc(NCCc3ccc(F)cc3)nc(OC)n2)c1 [Compound 6]
The IC50 of the first is 3.2-fold higher: 39 nM for the first, 12 nM for the second. The second is the more potent here.

First: COc1nc(NCCc2ccc(F)cc2)nc(-c2ccc(OC)c(OC)c2)n1 [Compound 3]
Second: COc1nc(NCCc2ccc(F)cc2)nc(-c2ccc(OC)c(C#N)c2)n1 [Compound 64]
The IC50 of the first is 1.7-fold lower: 11 nM for the first, 19 nM for the second. The first is the more potent here.

Going from `COc1nc(NCCc2ccc(F)cc2)nc(-c2ccc(SC)cc2)n1` [Compound 5] to `COc1nc(NCCc2ccc(F)cc2)nc(-c2cc3ccc(SC)cc3[nH]2)n1` [Compound 26], the IC50 rises from 14 nM to 37 nM (2.6-fold). The first is the more potent here.

Compared with `COc1nc(NCCc2ccc(F)cc2)nc(-c2ccc3c(c2)OCO3)n1` [Compound 7], `COc1nc(NCCc2ccc(F)cc2)nc(-c2ccc3c(c2)OCCO3)n1` [Compound 8] is 1.6-fold higher in IC50: 9 nM for the first, 14 nM for the second. The first is the more potent here.

First: COc1nc(NCCc2ccc(F)cc2)nc(-c2cccc(C(C)=O)c2F)n1 [Compound 10]
Second: COc1nc(NCCc2ccc(F)cc2)nc(-c2cccc3[nH]ccc23)n1 [Compound 27]
The IC50 of the first is 2.7-fold lower: 10 nM for the first, 27 nM for the second. The first is the more potent here.

Compared with `COc1nc(NCCc2ccc(F)cc2)nc(-c2cccc(S(=O)(=O)NC3CC3)c2)n1` [Compound 11], `COc1nc(NCCc2ccc(OC(F)F)cc2)nc(-c2cccc(S(=O)(=O)NC3CC3)c2)n1` [Compound 60] is 8.5-fold higher in IC50: 2.7 nM for the first, 23 nM for the second.

Going from `COc1nc(NCCc2ccc(F)cc2)nc(-c2ccc(Cl)c(C(C)(C)O)c2)n1` [Compound 13] to `COc1nc(NCCc2ccc(F)cc2)nc(-c2ccc(F)c(C(C)(C)O)c2)n1` [Compound 14], the IC50 rises from 0.4 nM to 8 nM (20-fold).

Compared with `COc1nc(NCCc2ccc(F)cc2)nc(-c2ccc(C(C)(C)O)c(OC)c2)n1` [Compound 15], `COc1nc(NCCc2ccc(OCF)cc2)nc(-c2ccc(OC)c(C(C)(C)O)c2)n1` [Compound 70] is 1.9-fold lower in IC50: 17 nM for the first, 9 nM for the second. The second is the more potent here.

`COc1nc(NCCc2ccc(F)cc2)nc(-c2ccc(N(C)C)nc2)n1` [Compound 16] and `COc1nc(NCCc2ccc(F)cc2)nc(-c2cnc3ccccc3c2)n1` [Compound 32] are within 1.5-fold of each other in IC50: 35 nM for the first, 34 nM for the second.

`COc1nc(NCCc2ccc(F)cc2)nc(-c2cc3cc(Br)ccc3[nH]2)n1` [Compound 17] and `COc1nc(NCCc2ccc(F)cc2)nc(-c2cc3cc(Cl)ccc3[nH]2)n1` [Compound 19] are within 1.5-fold of each other in IC50: 17 nM for the first, 14 nM for the second.

First: COc1nc(NCCc2ccc(F)cc2)nc(-c2cc3ccc(F)cc3[nH]2)n1 [Compound 21]
Second: COc1nc(NCCc2ccc(F)cc2)nc(-c2cc3cc(C)ccc3[nH]2)n1 [Compound 22]
The IC50 of the first is 2-fold higher: 48 nM for the first, 24 nM for the second. The second is the more potent here.

Going from `COc1nc(NCCc2ccc(F)cc2)nc(-c2cc3c(OC)cccc3[nH]2)n1` [Compound 23] to `COc1ccc2[nH]c(-c3nc(NCCc4ccc(F)cc4)nc(OC)n3)cc2c1` [Compound 24], the IC50 falls from 33 nM to 21 nM (1.6-fold).

First: COc1nc(NCCc2ccc(F)cc2)nc(-c2cc3cc(C#N)ccc3[nH]2)n1 [Compound 25]
Second: COc1nc(NCCc2ccc(OC(F)F)cc2)nc(-c2cc3cc(F)ccc3[nH]2)n1 [Compound 43]
The IC50 of the first is 1.7-fold lower: 27 nM for the first, 45 nM for the second. The first is the more potent here.

Going from `COc1nc(NCCc2ccc(F)cc2)nc(-c2ccc3[nH]ccc3c2)n1` [Compound 28] to `COc1nc(NCCc2ccc(F)cc2)nc(-c2ccc3cc[nH]c3c2)n1` [Compound 29], the IC50 falls from 34 nM to 14 nM (2.4-fold).

First: COc1nc(NCCc2ccc(F)cc2)nc(-c2cc3ccccc3o2)n1 [Compound 30]
Second: COc1nc(NCCc2ccc(F)cc2)nc(-c2cc3cc(Cl)ccc3o2)n1 [Compound 51]
The IC50 of the first is 4.6-fold lower: 5 nM for the first, 23 nM for the second.

`COc1nc(NCCc2ccc(F)cc2)nc(-c2ccc3nonc3c2)n1` [Compound 31] and `COc1nc(NCCc2ccc(F)cc2)nc(-c2ccc3ncccc3c2)n1` [Compound 35] are within 1.5-fold of each other in IC50: 42 nM for the first, 32 nM for the second.

Going from `COc1nc(NCCc2ccc(F)cc2)nc(-c2ccnc3ccccc23)n1` [Compound 33] to `COc1nc(NCCc2ccc(F)cc2)nc(-c2cccc3ncccc23)n1` [Compound 34], the IC50 rises from 11 nM to 47 nM (4.3-fold). The first is the more potent here.

Compared with `COc1nc(NCCc2ccc(F)cc2)nc(-c2cccc3cccnc23)n1` [Compound 36], `COc1nc(NCCc2ccc(F)cc2)nc(-c2ccc(F)c3cccnc23)n1` [Compound 37] is 17-fold lower in IC50: 17 nM for the first, 1 nM for the second.

`COc1nc(NCCc2ccc(F)cc2)nc(-c2ccc(C)c3ncccc23)n1` [Compound 38] and `COc1nc(NCCc2ccc(F)cc2)nc(-c2ccc(OC)c3nc(C)ccc23)n1` [Compound 39] are the same in IC50: 38 nM for the first, 38 nM for the second.

`COc1nc(NCCc2ccc(F)cc2)nc(-c2cncc3ccccc23)n1` [Compound 40] and `COc1nc(NCCc2ccc(F)cc2)nc(-c2cccc3cnccc23)n1` [Compound 41] are within 1.5-fold of each other in IC50: 21 nM for the first, 20 nM for the second.

`COc1nc(NCCc2ccc(OC(F)F)cc2)nc(-c2cc3c(Cl)cccc3[nH]2)n1` [Compound 42] and `COc1nc(NCCc2ccc(OC(F)F)cc2)nc(-c2cccc(C(C)(C)O)c2)n1` [Compound 44] are within 1.5-fold of each other in IC50: 24 nM for the first, 18 nM for the second.

Going from `COc1nc(NCCc2ccc(OC(F)F)cc2)nc(-c2ccc(F)c(C(C)(C)O)c2)n1` [Compound 45] to `COc1nc(NCCc2ccc(OC(F)(F)F)cc2)nc(-c2ccc(Cl)c(C(C)(C)O)c2)n1` [Compound 50], the IC50 falls from 30 nM to 12 nM (2.5-fold). The second is the more potent here.

Compared with `COc1nc(NCCc2ccc(F)cc2)nc(-c2cc3ccccc3s2)n1` [Compound 47], `COc1ccc2oc(-c3nc(NCCc4ccc(F)cc4)nc(OC)n3)cc2c1` [Compound 48] is 3-fold higher in IC50: 4 nM for the first, 12 nM for the second.

Going from `COc1nc(NCCc2ccc(OC(F)F)cc2)nc(-c2cccc(OC)c2C(C)(C)O)n1` [Compound 49] to `COc1nc(NCCc2ccc(OC(F)(F)F)cc2)nc(-c2ccc(OC)c(C(C)(C)O)c2)n1` [Compound 54], the IC50 rises from 4 nM to 9 nM (2.2-fold).

First: COc1nc(NCCc2ccc(OC(F)F)cc2)nc(-c2ccc(C)c(S(=O)(=O)NC3CC3)c2)n1 [Compound 55]
Second: COc1nc(NCCc2ccc(F)cc2)nc(-c2ccc(Cl)c(S(=O)(=O)NC3CC3)c2)n1 [Compound 62]
The IC50 of the first is 11-fold higher: 44 nM for the first, 4 nM for the second.

`CCC(O)(CC)c1cccc(-c2nc(NCCc3ccc(F)cc3)nc(OC)n2)c1` [Compound 57] and `COc1nc(NCCc2ccc(F)cc2)nc(-c2ccc(Cl)c(OCCCNS(C)(=O)=O)c2)n1` [Compound 66] are within 1.5-fold of each other in IC50: 21 nM for the first, 18 nM for the second.

Going from `COc1nc(NCCc2ccc(F)cc2)nc(-c2ccc(CO)c(S(=O)(=O)NC3CC3)c2)n1` [Compound 59] to `COc1nc(NCCc2ccc(OC(F)F)cc2)nc(-c2ccc(Cl)c(OCC(N)=O)c2)n1` [Compound 68], the IC50 falls from 25 nM to 11 nM (2.3-fold). The second is the more potent here.

Same assay, conditions: reported in text, read-out: IC50 on hCB2

`CC(C)(O)c1cc(-c2nc(NCCc3ccc(F)cc3)nc(OCF)n2)ccc1Cl` [Compound 71, 2-{2-Chloro-5-[4-(fluoromethoxy)-6-{[2-(4-fluorophenyl)ethyl]amino}-1,3,5-triazin-2-yl]phenyl}propan-2-ol] and `COc1ccc(-c2nc(NCCc3ccc(F)cc3)nc(OCF)n2)cc1C(C)(C)O` [Compound 72, 2-{5-[4-(Fluoromethoxy)-6-{[2-(4-fluorophenyl)ethyl]amino}-1,3,5-triazin-2-yl]-2-methoxyphenyl}propan-2-ol] are the same in IC50: 1.2 nM for the first, 1.2 nM for the second.
